SMILES strings stand for the structures.

This test addresses T1, Vitamin D3 receptor (Rattus norvegicus) (UniProt P13053).
T1 sequence (whole entry): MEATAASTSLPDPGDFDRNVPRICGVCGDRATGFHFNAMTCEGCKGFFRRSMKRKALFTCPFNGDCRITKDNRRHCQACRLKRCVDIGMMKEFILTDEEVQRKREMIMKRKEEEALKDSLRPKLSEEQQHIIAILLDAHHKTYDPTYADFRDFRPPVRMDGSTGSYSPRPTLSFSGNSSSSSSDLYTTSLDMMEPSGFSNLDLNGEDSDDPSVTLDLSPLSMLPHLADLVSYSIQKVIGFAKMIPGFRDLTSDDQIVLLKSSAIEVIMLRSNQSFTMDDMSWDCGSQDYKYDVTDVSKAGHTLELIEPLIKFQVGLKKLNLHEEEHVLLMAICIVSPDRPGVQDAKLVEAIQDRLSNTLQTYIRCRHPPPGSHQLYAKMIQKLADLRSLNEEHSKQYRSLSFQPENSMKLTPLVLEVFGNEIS
In words: Vitamin D receptor mediated transcriptional activity in rat osteosarcoma ROS 17/2.8 cells.
In the case of `C=C1/C(=C\C=C2/CCC[C@]3(C)[C@@H]([C@H](C)CCCC(C)(C)O)CC[C@@H]23)C[C@@H](O)C[C@@H]1O`, the ED50 was 0.3 nM.

For the molecule `C=C1/C(=C\C=C2/CCC[C@]3(C)C([C@H](C)CCC(F)(F)C(C)(C)O)=CC[C@@H]23)C[C@H](O)C[C@H]1CO`, the ED50 amounted to 0.2 nM.

As to `C=C1/C(=C\C=C2/CCC[C@]3(C)C([C@H](C)CCC(F)(F)C(O)(CC)CC)=CC[C@@H]23)C[C@H](O)C[C@H]1CO`, the ED50 was 0.05 nM.

Source of the values: ChEMBL document CHEMBL1131627, “Noncalcemic, antiproliferative, transcriptionally active, 24-fluorinated hybrid analogues of the hormone 1alpha, 25-dihydroxyvitamin D3. Synthesis and preliminary biological evaluation” (J Med Chem, 1998).
